# From ChEMBL document CHEMBL2440076, “New triarylpyrazoles as broad-spectrum anticancer agents: design, synthesis, and biological evaluation” (Eur J Med Chem, 2013)
# How the values were obtained:
# Format in all cases: functional
# UACC-257 [1] = assay: Growth inhibition of human UACC257 cells assessed as cell growth at 5X10'-5 M after 48 hrs by sulforhodamine B assay; details: UACC-257, 48 h, read-out: Activity
# MCF7 [2] = assay: Growth inhibition of human MCF7 cells assessed as cell growth at 5X10'-9 M after 48 hrs by sulforhodamine B assay; details: MCF7, 48 h, read-out: Activity
# SK-MEL-5 = assay: Growth inhibition of human SK-MEL-5 cells assessed as cell growth at 5X10'-5 M after 48 hrs by sulforhodamine B assay; details: SK-MEL-5, 48 h, read-out: Activity
# MCF7 [3] = assay: Growth inhibition of human MCF7 cells assessed as cell growth at 5X10'-6 M after 48 hrs by sulforhodamine B assay; details: MCF7, 48 h, read-out: Activity
# HCT-15 [4] = assay: Growth inhibition of human HCT15 cells assessed as cell growth at 5X10'-8 M after 48 hrs by sulforhodamine B assay; details: HCT-15, 48 h, read-out: Activity
# OVCAR-5 = assay: Growth inhibition of human OVCAR5 cells assessed as cell growth at 5X10'-5 M after 48 hrs by sulforhodamine B assay; details: OVCAR-5, 48 h, read-out: Activity
# CAKI-1 = assay: Growth inhibition of human CAKI-1 cells assessed as cell growth at 5X10'-7 M after 48 hrs by sulforhodamine B assay; details: CAKI-1, 48 h, read-out: Activity
# HOP-92 [5] = assay: Growth inhibition of human HOP92 cells assessed as cell growth at 5X10'-5 M after 48 hrs by sulforhodamine B assay; details: HOP-92, 48 h, read-out: Activity
# SK-MEL-2 = assay: Growth inhibition of human SK-MEL-2 cells assessed as cell growth at 5X10'-8 M after 48 hrs by sulforhodamine B assay; details: SK-MEL-2, 48 h, read-out: Activity
# MDA-MB-435 [6] = assay: Growth inhibition of human MDA-MB-435 cells assessed as cell growth at 5X10'-6 M after 48 hrs by sulforhodamine B assay; details: MDA-MB-435, 48 h, read-out: Activity
# NCI-H226 [7] = assay: Growth inhibition of human NCI-H226 cells assessed as cell growth at 5X10'-5 M after 48 hrs by sulforhodamine B assay; details: NCI-H226, 48 h, read-out: Activity
# MDA-MB-435 [8] = assay: Growth inhibition of human MDA-MB-435 cells assessed as cell growth at 5X10'-5 M after 48 hrs by sulforhodamine B assay; details: MDA-MB-435, 48 h, read-out: Activity
# NCI-H226 [9] = assay: Growth inhibition of human NCI-H226 cells assessed as cell growth at 5X10'-9 M after 48 hrs by sulforhodamine B assay; details: NCI-H226, 48 h, read-out: Activity
# SK-MEL-28 = assay: Growth inhibition of human SK-MEL-28 cells assessed as cell growth at 5X10'-5 M after 48 hrs by sulforhodamine B assay; details: SK-MEL-28, 48 h, read-out: Activity
# RPMI-8226 = assay: Growth inhibition of human RPMI8226 cells assessed as cell growth at 5X10'-7 M after 48 hrs by sulforhodamine B assay; details: RPMI-8226, 48 h, read-out: Activity
# DU-145 [10] = assay: Growth inhibition of human DU145 cells assessed as cell growth at 5X10'-9 M after 48 hrs by sulforhodamine B assay; details: DU-145, 48 h, read-out: Activity
# [11] = Growth inhibition of human Hs 578T cells assessed as cell growth at 5X10'-5 M after 48 hrs by sulforhodamine B assay; details: read-out: Activity
# NCI-H226 [12] = assay: Growth inhibition of human NCI-H226 cells assessed as cell growth at 5X10'-6 M after 48 hrs by sulforhodamine B assay; details: NCI-H226, 48 h, read-out: Activity
# KM12 = assay: Growth inhibition of human KM12 cells assessed as cell growth at 5X10'-8 M after 48 hrs by sulforhodamine B assay; details: KM12, 48 h, read-out: Activity
# LOX IMVI = assay: Growth inhibition of human LOXIMVI cells assessed as cell growth at 5X10'-9 M after 48 hrs by sulforhodamine B assay; details: read-out: Activity
# ACHN = assay: Growth inhibition of human ACHN cells assessed as cell growth at 5X10'-6 M after 48 hrs by sulforhodamine B assay; details: read-out: Activity
# MCF7 [13] = assay: Growth inhibition of human MCF7 cells assessed as cell growth at 5X10'-7 M after 48 hrs by sulforhodamine B assay; details: MCF7, 48 h, read-out: Activity
# 786-0 = assay: Growth inhibition of human 786-0 cells assessed as cell growth at 5X10'-7 M after 48 hrs by sulforhodamine B assay; details: 786-0, 48 h, read-out: Activity
# HT-29 = assay: Growth inhibition of human HT-29 cells assessed as cell growth at 5X10'-8 M after 48 hrs by sulforhodamine B assay; details: HT-29, 48 h, read-out: Activity
# [14] = Growth inhibition of human Hs 578T cells assessed as cell growth at 5X10'-8 M after 48 hrs by sulforhodamine B assay; details: read-out: Activity
# A498 = assay: Growth inhibition of human A498 cells assessed as cell growth at 5X10'-8 M after 48 hrs by sulforhodamine B assay; details: A498, 48 h, read-out: Activity
# HOP-92 [15] = assay: Growth inhibition of human HOP92 cells assessed as cell growth at 5X10'-8 M after 48 hrs by sulforhodamine B assay; details: HOP-92, 48 h, read-out: Activity
# HCT-15 [16] = assay: Growth inhibition of human HCT15 cells assessed as cell growth at 5X10'-5 M after 48 hrs by sulforhodamine B assay; details: HCT-15, 48 h, read-out: Activity
# U-251 = assay: Growth inhibition of human U251 cells assessed as cell growth at 5X10'-5 M after 48 hrs by sulforhodamine B assay; details: U-251, 48 h, read-out: Activity
# SF-295 = assay: Growth inhibition of human SF295 cells assessed as cell growth at 5X10'-9 M after 48 hrs by sulforhodamine B assay; details: SF-295, 48 h, read-out: Activity
# NCI-H522 = assay: Growth inhibition of human NCI-H522 cells assessed as cell growth at 5X10'-6 M after 48 hrs by sulforhodamine B assay; details: NCI-H522, 48 h, read-out: Activity
# DU-145 [17] = assay: Growth inhibition of human DU145 cells assessed as cell growth at 5X10'-7 M after 48 hrs by sulforhodamine B assay; details: DU-145, 48 h, read-out: Activity
# UACC-257 [18] = assay: Growth inhibition of human UACC257 cells assessed as cell growth at 5X10'-8 M after 48 hrs by sulforhodamine B assay; details: UACC-257, 48 h, read-out: Activity
# Malme-3M = assay: Growth inhibition of human MALME-3M cells assessed as cell growth at 5X10'-5 M after 48 hrs by sulforhodamine B assay; details: read-out: Activity
# [19] = Growth inhibition of human NCI-ADR-RES cells assessed as cell growth at 5X10'-5 M after 48 hrs by sulforhodamine B assay; details: read-out: Activity
# SNB-19 = assay: Growth inhibition of human SNB19 cells assessed as cell growth at 5X10'-9 M after 48 hrs by sulforhodamine B assay; details: SNB-19, 48 h, read-out: Activity
# SF-268 = assay: Growth inhibition of human SF268 cells assessed as cell growth at 5X10'-5 M after 48 hrs by sulforhodamine B assay; details: SF-268, 48 h, read-out: Activity
smiles,measurement,setting,value
COc1cc(-c2nn(-c3cccc(NC(=O)c4cccc(C(F)(F)F)c4)c3)cc2-c2ccncc2)ccc1Cl,growth at 50 µM,UACC-257 [1],48%
same,growth at 0.005 µM,MCF7 [2],94%
same,growth at 50 µM,SK-MEL-5,-51%
same,growth at 5 µM,MCF7 [3],13%
same,growth at 0.05 µM,HCT-15 [4],96%
same,growth at 50 µM,OVCAR-5,31%
same,growth at 0.5 µM,CAKI-1,90%
same,growth at 50 µM,HOP-92 [5],-22%
same,growth at 0.05 µM,SK-MEL-2,97%
same,growth at 5 µM,MDA-MB-435 [6],-56%
same,growth at 50 µM,NCI-H226 [7],-7%
same,growth at 50 µM,MDA-MB-435 [8],-37%
same,growth at 0.005 µM,NCI-H226 [9],95%
same,growth at 50 µM,SK-MEL-28,38%
same,growth at 0.5 µM,RPMI-8226,88%
same,growth at 0.005 µM,DU-145 [10],98%
same,growth at 50 µM,[11],13%
same,growth at 5 µM,NCI-H226 [12],18%
same,growth at 0.05 µM,KM12,95%
same,growth at 0.005 µM,LOX IMVI,94%
same,growth at 5 µM,ACHN,27%
same,growth at 0.5 µM,MCF7 [13],81%
same,growth at 0.5 µM,786-0,101%
same,growth at 0.05 µM,HT-29,96%
same,growth at 0.05 µM,[14],91%
same,growth at 0.05 µM,A498,80%
same,growth at 0.05 µM,HOP-92 [15],81%
same,growth at 50 µM,HCT-15 [16],8%
same,growth at 50 µM,U-251,3%
same,growth at 0.005 µM,SF-295,94%
same,growth at 5 µM,NCI-H522,-10%
same,growth at 0.5 µM,DU-145 [17],92%
same,growth at 0.05 µM,UACC-257 [18],99%
same,growth at 50 µM,Malme-3M,29%
same,growth at 50 µM,[19],-9%
same,growth at 0.005 µM,SNB-19,100%
same,growth at 50 µM,SF-268,8%
